Laboratory results as given in US8309558B2, “Compounds for the treatment of hepatitis C” (Bristol-Myers Squibb Company, priority 2008, dated 2012).
Like-named read-outs stand apart in the source and are kept apart here.

What was measured:
[1] = test system: HCV replicon cells; test: HCV replicon FRET / luciferase assay (96-well plates); assay type: cell-based; conditions: Hepatitis C virus, HCV replicon, read-out: EC50
Procedure, shortened: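 Replicon cells + titrated cpds, 37 °C CO2. Alamar blue for cytotoxicity, PBS rinse, then lysis reagent w/ 20 μM FRET peptide (EDANS/DABCYL), 150 mM NaCl; kinetic read ex340/em490, 20 cycles. Alt: Dual-Glo luciferase. EC50 = 50% drop in FRET/luciferase signal after background subtraction.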

[2] = molecular target: T1, HCV NS5B RdRp genotype 1b (Hepatitis C virus genotype 1b, UniProt Q9WMX2); test: Standard HCV NS5B RdRp enzyme assay; assay type: biochemical; conditions: HCV NS5B RdRp genotype 1b, read-out: IC50
T1 construct: The protein was expressed with an 18 amino acid C-terminal truncation to enhance the solubility; made in house; host or cells: E. coli BL21(DE3), pET21a vector
T1 sequence (Q9WMX2 2420-2992): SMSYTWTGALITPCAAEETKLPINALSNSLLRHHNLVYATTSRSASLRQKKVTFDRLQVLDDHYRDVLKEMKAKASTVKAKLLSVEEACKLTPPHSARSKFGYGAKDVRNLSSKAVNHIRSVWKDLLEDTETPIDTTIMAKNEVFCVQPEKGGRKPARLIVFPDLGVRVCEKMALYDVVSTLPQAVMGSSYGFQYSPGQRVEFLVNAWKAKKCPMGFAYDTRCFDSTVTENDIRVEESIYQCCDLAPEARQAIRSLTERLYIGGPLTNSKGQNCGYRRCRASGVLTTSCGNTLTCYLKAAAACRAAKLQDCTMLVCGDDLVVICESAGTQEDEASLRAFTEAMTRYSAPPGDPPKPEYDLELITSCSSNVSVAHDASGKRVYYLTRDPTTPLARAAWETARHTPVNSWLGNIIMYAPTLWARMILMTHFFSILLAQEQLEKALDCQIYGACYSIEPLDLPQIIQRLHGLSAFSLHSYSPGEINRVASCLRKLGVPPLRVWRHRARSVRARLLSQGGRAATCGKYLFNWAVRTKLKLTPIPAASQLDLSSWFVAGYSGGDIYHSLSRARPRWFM
Procedure, shortened: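 C-terminally truncated (18 aa) genotype 1b NS5B from E. coli, 28 nM, with 6 nM polyA template, 180 nM biotinylated oligo-dT12 primer and 3H-UTP (0.29 μM total UTP). Hepes pH 7.5 buffer with 2% DMSO; 60 min at 30° C. EDTA stop, SPA read-out; IC50 from seven concentrations by four-parameter fit.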

For CCC(C)(C)NC(=O)c1cccc(-c2ccc3oc(-c4ccc(F)cc4)c(C(=O)NC)c3c2)c1, the EC50 ([1]; Table 1a) was under 250 nM and the IC50 ([2]; Table 1a) was under 250 nM.

CNC(=O)c1c(-c2ccc(F)cc2)oc2ccc(-c3cc(C(=O)NC4(c5cccc(C)c5)CC4)c(OC)cc3C)cc12 gave an EC50 ([1]; 24 h, Table 1d (class symbols)) of 1 to 250 nM and an IC50 ([2]; Table 1d (class symbols)) of 1 to 250 nM.

With CNC(=O)c1c(-c2ccc(F)cc2)oc2ccc(-c3cccc(C(=O)NC(C)(C)CC(C)=O)c3)cc12 the EC50 ([1]; Table 1a) was 250 to 1000 nM and the IC50 ([2]; Table 1a) was 250 to 1000 nM.

For CNC(=O)c1c(-c2ccc(F)cc2)oc2ccc(-c3cccc(C(=O)N4CC(C)OC(C)C4)c3)cc12 (stereo not shown), the EC50 ([1]; Table 1a) was 1000 to 10000 nM and the IC50 ([2]; Table 1a) was 1000 to 10000 nM.

CNC(=O)c1c(-c2ccc(F)cc2)oc2ccc(-c3cccc(C(=O)N4CCCC4C)c3)cc12 (stereo not shown) showed an EC50 ([1]; Table 1a) of 1000 to 10000 nM and an IC50 ([2]; Table 1a) of 250 to 1000 nM.

CNC(=O)c1c(-c2ccc(F)cc2)oc2ccc(-c3cccc(S(=O)(=O)NC4CC4)c3)cc12 showed an EC50 ([1]; Table 1a) of over 10000 nM and an IC50 ([2]; Table 1a) of over 10000 nM.

CNC(=O)c1c(-c2ccc(F)cc2)oc2ccc(-c3cc(C(=O)NCC(C)C)ccc3OCc3ccc(C(F)(F)F)cn3)cc12 gave an EC50 ([1]; Table 1b) of over 10000 nM and an IC50 ([2]; Table 1b) of over 10000 nM.

Work on CNC(=O)c1c(-c2ccc(F)cc2)oc2ccc(-c3cccc(C(=O)NC(C)(C)C(=O)Nc4cc(C)no4)c3)cc12 yielded an EC50 ([1]; Table 1b) of under 250 nM and an IC50 ([2]; Table 1b) of under 250 nM.

For CNC(=O)c1c(-c2ccc(F)cc2)oc2ccc(-c3cc(Br)cnc3F)cc12, the EC50 ([1]; Table 1a) was over 10000 nM and the IC50 ([2]; Table 1a) was over 10000 nM.

CNC(=O)c1c(-c2ccc(F)cc2)oc2ccc(-c3cc(C(=O)NC4(c5ccccc5)CC4)ccc3OC(F)(F)F)cc12 was tested, and the EC50 ([1]; Table 1b) was under 250 nM and the IC50 ([2]; Table 1b) was 250 to 1000 nM.

CNC(=O)c1c(-c2ccc(F)cc2)oc2ccc(-c3cccc(C(=O)NC(C)(C)C)c3)cc12 showed an EC50 ([1]; Table 1a) of under 250 nM and an IC50 ([2]; Table 1a) of under 250 nM.

Work on CNC(=O)c1c(-c2ccc(F)cc2)oc2ccc(-c3ccccc3/C=C/C(=O)O)cc12 yielded an EC50 ([1]; Table 1a) of over 10000 nM and an IC50 ([2]; Table 1a) of 1000 to 10000 nM.

Work on CNC(=O)c1c(-c2ccc(F)cc2)oc2cc(NS(C)(=O)=O)c(-c3cc(C(=O)NC4(c5ccccc5)CC4)ccc3C)cc12 yielded an EC50 ([1]; Table 1b) of under 250 nM and an IC50 ([2]; Table 1b) of under 250 nM.

CNC(=O)c1c(-c2ccc(F)cc2)oc2ccc(-c3cccc(C(=O)N[C@H]4CCC[C@H]4c4ccc(Cl)cc4)c3)cc12 [drawing 243] showed an EC50 ([1]; Table 1a) of 1000 to 10000 nM and an IC50 ([2]; Table 1a) of over 10000 nM.

In the case of CNC(=O)c1c(-c2ccc(F)cc2)oc2ccc(-c3ccc(NC(=O)OC(C)(C)C)cc3)cc12, the EC50 ([1]; Table 1a) is reported as over 400 nM and the IC50 ([2]; Table 1a) is reported as over 10000 nM.

CCNC(=O)c1cccc(-c2ccc3oc(-c4ccc(F)cc4)c(C(=O)NC)c3c2)c1 gave an EC50 ([1]; Table 1a) of 250 to 1000 nM and an IC50 ([2]; Table 1a) of 250 to 1000 nM.

With CNC(=O)c1c(-c2ccc(F)cc2)oc2ccc(-c3cc(C(=O)NC4(c5ccccn5)CC4)ccc3OCCN(C)C)cc12 the EC50 ([1]; Table 1b) was under 250 nM and the IC50 ([2]; Table 1b) was under 250 nM.

CNC(=O)c1c(-c2ccc(F)cc2)oc2ccc(-c3ccc(-c4cccc(OC)c4F)c(C(=O)NCC(C)C)c3)cc12 showed an EC50 ([1]; Table 1b) of 250 to 1000 nM and an IC50 ([2]; Table 1b) of over 10000 nM.

For CNC(=O)c1c(-c2ccc(F)cc2)oc2ccc(-c3cccc(C(=O)N[C@H]4C[C@@H]4c4ccccc4)c3)cc12, the EC50 ([1]; Table 1a) was under 250 nM and the IC50 ([2]; Table 1a) was over 400 nM.

CNC(=O)c1c(-c2ccc(F)cc2)oc2ccc(-c3cc(C(=O)NC4(c5cccnc5)CC4)ccc3C)cc12 showed an EC50 ([1]; Table 1b) of under 250 nM and an IC50 ([2]; Table 1b) of under 20 nM.

CNC(=O)c1c(-c2ccc(F)cc2)oc2ccc(-c3cccc(C(=O)NC(C)(C)C(=O)OC)c3)cc12 showed an EC50 ([1]; Table 1a) of under 250 nM and an IC50 ([2]; Table 1a) of under 250 nM.

CNC(=O)c1c(-c2ccc(F)cc2)oc2ccc(-c3cccc(C(=O)NCc4ccccn4)c3)cc12 gave an EC50 ([1]; Table 1a) of 250 to 1000 nM and an IC50 ([2]; Table 1a) of under 250 nM.

CNC(=O)c1c(-c2ccc(F)cc2)oc2ccc(-c3cccc(C(=O)N4CCc5ccccc54)c3)cc12 gave an EC50 ([1]; Table 1a) of 250 to 1000 nM and an IC50 ([2]; Table 1a) of 1000 to 10000 nM.

Compound CNC(=O)c1c(-c2ccc(F)cc2)oc2ccc(-c3cccc(C(=O)Nc4cccnc4)c3)cc12 has an EC50 ([1]; Table 1a) of under 250 nM and an IC50 ([2]; Table 1a) of under 250 nM.

In the case of CNC(=O)c1c(-c2ccc(F)cc2)oc2ccc(-c3cccc(C(=O)NC(C)(C)c4ccc(F)cc4)c3)cc12, the EC50 ([1]; Table 1a) is reported as under 250 nM and the IC50 ([2]; Table 1a) is reported as under 250 nM.

In the case of CNC(=O)c1c(-c2ccc(F)cc2)oc2cc([N+](=O)[O-])c(-c3cccc(C(=O)NCC(C)C)c3)cc12, the EC50 ([1]; Table 1b) is reported as under 250 nM and the IC50 ([2]; Table 1b) is reported as under 250 nM.

Compound CNC(=O)c1c(-c2ccc(F)cc2)oc2ccc(-c3cc(C(=O)N4CCC5(CC4)OCc4ccccc45)ccc3Cl)cc12 has an EC50 ([1]; Table 1b) of 1000 to 10000 nM and an IC50 ([2]; Table 1b) of 1000 to 10000 nM.

CNC(=O)c1c(-c2ccc(F)cc2)oc2ccc(-c3cccc(C(=O)NCc4ccncc4)c3)cc12 gave an EC50 ([1]; Table 1a) of 250 to 1000 nM and an IC50 ([2]; Table 1a) of under 250 nM.

In the case of CNC(=O)c1c(-c2ccc(F)cc2)oc2ccc(-c3cc(C(=O)NC4(c5nnc(-c6cccc(OC)c6)[nH]5)CC4)ccc3C)cc12, the EC50 ([1]; Table 1b) is reported as under 250 nM and the IC50 ([2]; Table 1b) is reported as under 250 nM.
